# Test results: patent US20160106439A1, “PNEUMATIC TOURNIQUET” (BIONUMERIK PHARMACEUTICALS, INC., priority 2013, published 2016)
# Where two headings read alike, the source gives them in different places.
# T1: glutathione reductase (GR) (Homo sapiens, UniProt P00390)
# T1 sequence (P00390 44-522): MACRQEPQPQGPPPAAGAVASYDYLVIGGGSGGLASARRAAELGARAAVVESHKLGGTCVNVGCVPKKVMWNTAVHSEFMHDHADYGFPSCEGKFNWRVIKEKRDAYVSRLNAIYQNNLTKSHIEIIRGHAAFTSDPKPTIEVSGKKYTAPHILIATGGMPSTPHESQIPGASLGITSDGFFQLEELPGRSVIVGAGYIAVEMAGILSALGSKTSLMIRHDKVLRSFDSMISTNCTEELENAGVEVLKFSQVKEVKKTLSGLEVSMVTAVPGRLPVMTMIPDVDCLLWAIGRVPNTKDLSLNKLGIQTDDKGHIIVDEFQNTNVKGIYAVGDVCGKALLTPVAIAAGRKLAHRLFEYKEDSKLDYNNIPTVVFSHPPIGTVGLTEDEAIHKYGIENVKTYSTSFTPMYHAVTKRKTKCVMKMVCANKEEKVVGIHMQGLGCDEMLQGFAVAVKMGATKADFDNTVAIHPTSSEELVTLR
# T2: mammalian thioredoxin reductase (TrxR) (Homo sapiens, UniProt Q16881)
# T2 sequence (Q16881 1-499 isoform Q16881-5): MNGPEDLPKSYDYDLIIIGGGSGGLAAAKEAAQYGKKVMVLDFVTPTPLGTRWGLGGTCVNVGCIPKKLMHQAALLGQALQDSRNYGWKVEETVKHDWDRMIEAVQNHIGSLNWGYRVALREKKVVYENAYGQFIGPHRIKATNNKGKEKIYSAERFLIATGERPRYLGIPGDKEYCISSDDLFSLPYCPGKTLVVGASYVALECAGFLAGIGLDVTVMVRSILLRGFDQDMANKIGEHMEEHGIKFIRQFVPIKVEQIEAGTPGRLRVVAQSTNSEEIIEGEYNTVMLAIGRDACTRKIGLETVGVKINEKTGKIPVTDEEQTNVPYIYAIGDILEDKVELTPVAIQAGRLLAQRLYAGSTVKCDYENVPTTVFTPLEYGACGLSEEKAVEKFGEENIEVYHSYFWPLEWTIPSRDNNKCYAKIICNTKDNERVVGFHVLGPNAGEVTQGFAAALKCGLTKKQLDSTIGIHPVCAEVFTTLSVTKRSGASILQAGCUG
# T3: Recombinant human Trx (Homo sapiens, UniProt P10599)
# T3 sequence (P10599 1-105): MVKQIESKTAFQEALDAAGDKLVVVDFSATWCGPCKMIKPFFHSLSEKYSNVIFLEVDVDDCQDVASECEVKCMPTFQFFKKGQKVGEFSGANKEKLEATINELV
# Legend:
# T790M EGFR kinase = T790M EGFR kinase (Homo sapiens, UniProt P00533, T790M); assay: T790M EGFR kinase assay (ADP-glo); type: biochemical; details: for IC50: read-out: IC50 on T790M EGFR kinase activity; for potentiation of Erlotinib inhibition of T790M EGFR kinase activity: 10 μM and 100 μM ATP
# WT EGFR kinase = WT EGFR kinase (Homo sapiens, UniProt P00533); assay: WT EGFR kinase assay (ADP-glo); details: for potentiation of Erlotinib inhibition of WT EGFR kinase activity: 10 μM and 100 μM ATP
# ErbB-4 = ErbB-4 (Homo sapiens, UniProt Q15303); set-up: key: the “+” and “−” symbols signify the ability and inability to activate each of the ErbB receptors, respectively; the “+” and “−” symbols signify the ability and inability to activate each of the ErbB receptors, respectively; details: ability to activate the receptor; cited from earlier work
# ErbB-2 = ErbB-2 (Homo sapiens, UniProt P04626); set-up: key: the “+” and “−” symbols signify the ability and inability to activate each of the ErbB receptors, respectively; the “+” and “−” symbols signify the ability and inability to activate each of the ErbB receptors, respectively; details: ability to activate the receptor; cited from earlier work
# ErbB-3 = ErbB-3 (Homo sapiens, UniProt P21860); set-up: key: the “+” and “−” symbols signify the ability and inability to activate each of the ErbB receptors, respectively; the “+” and “−” symbols signify the ability and inability to activate each of the ErbB receptors, respectively; details: ability to activate the receptor; cited from earlier work
# ErbB-1 = ErbB-1 (Homo sapiens, UniProt P00533); details: ability to activate the receptor; cited from earlier work
# [1] = molecular target: T1, glutathione reductase (GR); details: cited from earlier work
# [2] = molecular target: T2, mammalian thioredoxin reductase (TrxR); details: cited from earlier work
# [3] = system: bovine brain microtubule protein (α-/β-tubulin); assay: Microtubule protein polymerization assay (OD350) and electron microscopy; type: biochemical; details: monoaquocisplatin 36 μM
# Recombinant human Trx = molecular target: T3, Recombinant human Trx; assay: LC MS of Trypsin digested Trx after incubation with Tavocept, mesna or glutathione; type: binding; set-up: purchased Sigma (SigmaAldrich); host or cells: E. coli; details: control reactions with glutathione
# [4] = read-out: IC50 on WT EGFR kinase activity, 10 μM ATP
# [5] = read-out: IC50 on WT EGFR kinase activity, 100 μM ATP
# [6] = read-out: IC50 on WT EGFR kinase activity, 250 μM ATP, conducted only once
# [7] = IC50 on WT EGFR kinase activity, 10 μM ATP
# [8] = IC50 on WT EGFR kinase activity, 100 μM ATP
# [9] = IC50 on WT EGFR kinase activity, 250 μM ATP, conducted only once
# ErbB-4, sequence (Q15303 26-1308, species assumed): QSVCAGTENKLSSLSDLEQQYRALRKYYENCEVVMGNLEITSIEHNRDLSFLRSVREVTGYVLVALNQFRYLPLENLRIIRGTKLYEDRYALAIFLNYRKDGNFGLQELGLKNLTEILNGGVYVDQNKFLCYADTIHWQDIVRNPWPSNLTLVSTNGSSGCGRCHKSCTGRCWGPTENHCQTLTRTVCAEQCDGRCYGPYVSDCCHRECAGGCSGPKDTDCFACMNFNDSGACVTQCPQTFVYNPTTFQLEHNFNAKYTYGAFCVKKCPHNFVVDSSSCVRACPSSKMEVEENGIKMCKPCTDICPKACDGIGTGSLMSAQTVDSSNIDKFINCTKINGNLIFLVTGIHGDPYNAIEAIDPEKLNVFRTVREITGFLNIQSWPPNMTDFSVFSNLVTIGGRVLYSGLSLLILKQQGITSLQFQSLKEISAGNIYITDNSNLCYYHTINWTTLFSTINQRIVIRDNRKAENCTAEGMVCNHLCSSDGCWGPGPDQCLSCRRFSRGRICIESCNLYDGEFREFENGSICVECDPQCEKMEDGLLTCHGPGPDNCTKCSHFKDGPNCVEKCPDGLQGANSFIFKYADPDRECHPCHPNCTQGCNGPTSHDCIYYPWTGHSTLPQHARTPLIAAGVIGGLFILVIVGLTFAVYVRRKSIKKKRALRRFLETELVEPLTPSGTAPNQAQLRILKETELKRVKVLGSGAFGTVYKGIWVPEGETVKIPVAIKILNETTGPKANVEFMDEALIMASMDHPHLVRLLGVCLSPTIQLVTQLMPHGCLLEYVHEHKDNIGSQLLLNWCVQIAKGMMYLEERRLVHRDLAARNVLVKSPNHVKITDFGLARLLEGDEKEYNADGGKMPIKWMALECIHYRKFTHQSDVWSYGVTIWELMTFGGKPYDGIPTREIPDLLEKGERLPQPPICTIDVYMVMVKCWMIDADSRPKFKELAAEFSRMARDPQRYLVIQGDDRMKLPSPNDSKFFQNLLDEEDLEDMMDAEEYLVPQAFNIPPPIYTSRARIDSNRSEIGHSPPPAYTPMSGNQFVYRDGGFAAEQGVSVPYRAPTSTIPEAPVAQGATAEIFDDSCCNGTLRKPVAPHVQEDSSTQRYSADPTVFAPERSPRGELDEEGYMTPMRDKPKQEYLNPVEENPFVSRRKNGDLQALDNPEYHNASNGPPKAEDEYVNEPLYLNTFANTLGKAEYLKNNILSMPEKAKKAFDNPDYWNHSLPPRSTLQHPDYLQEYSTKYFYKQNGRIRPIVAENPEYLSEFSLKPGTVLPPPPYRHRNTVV
molecule,measurement,setting,value
NC(CCC(=O)NC(CSSCCS(=O)(=O)O)C(=O)NCC(=O)O)C(=O)O (stereo not shown) [mesna-glutathione],IC50,T790M EGFR kinase; 10 μM ATP,1280 ± 290 µM
same,potentiation of Erlotinib inhibition of T790M EGFR kinase activity,T790M EGFR kinase,effectively potentiated
same,IC50,T790M EGFR kinase; 100 μM ATP,1170 ± 10 µM
same,potentiation of Erlotinib inhibition of WT EGFR kinase activity,WT EGFR kinase,effectively potentiated
same,IC50,WT EGFR kinase; [4],724 ± 220 µM
same,IC50,WT EGFR kinase; [5],820 ± 240 µM
same,IC50,WT EGFR kinase; [6],1570 µM
neuregulin 1,ErbB-4,ErbB-4,+
same,ErbB-2,ErbB-2,−
same,ErbB-3,ErbB-3,+
same,ErbB-1,ErbB-1,−
N.N.O=C([O-])C1(C(=O)[O-])CCC1.[Pt+2] [carboplatin],Inhibition of GR,[1],could not inhibit
same,Inhibition of TrxR,[2],could not inhibit
O=NN(CCCl)C(=O)NCCCl [carmustine],Inhibition of GR,[1],can inhibit
same,Inhibition of TrxR,[2],can inhibit
N.N.[Cl][Pt][Cl] [cisplatin],Inhibition of GR,[1],not GR
same,Inhibition of TrxR,[2],irreversibly inhibited
HB-EGF: growth factor ligand of ErbB receptors,ErbB-4,ErbB-4,+
same,ErbB-2,ErbB-2,−
same,ErbB-3,ErbB-3,−
same,ErbB-1,ErbB-1,+
O=P1(NCCCl)OCCCN1CCCl (stereo not shown) [ifosfamide],Inhibition of TrxR,[2],inhibited
epiregulin: growth factor ligand of ErbB receptors,ErbB-4,ErbB-4,+
same,ErbB-2,ErbB-2,−
same,ErbB-3,ErbB-3,−
same,ErbB-1,ErbB-1,+
NC(CSSCCS(=O)(=O)O)C(=O)O (stereo not shown) [mesna-cysteine],IC50,T790M EGFR kinase; 10 μM ATP,3760 ± 260 µM
same,potentiation of Erlotinib inhibition of T790M EGFR kinase activity,T790M EGFR kinase,effectively potentiated
same,IC50,T790M EGFR kinase; 100 μM ATP,3030 ± 280 µM
same,potentiation of Erlotinib inhibition of WT EGFR kinase activity,WT EGFR kinase,effectively potentiated
same,IC50,WT EGFR kinase; [7],2750 ± 800 µM
same,IC50,WT EGFR kinase; [8],2650 ± 110 µM
same,IC50,WT EGFR kinase; [9],2870 µM
"N.N.O.[Cl][Pt+] [monoaquocisplatin, reference compound]",effect of extended exposure on microtubule protein polymerization,[3],notable and reproducible loss
N[C@@H](Cc1ccc(N(CCCl)CCCl)cc1)C(=O)O [melphalan],Inhibition of GR,[1],not GR
same,Inhibition of TrxR,[2],irreversibly inhibited
CS(=O)(=O)OCCCCOS(C)(=O)=O [busulfan],Inhibition of GR,[1],not GR
same,Inhibition of TrxR,[2],irreversibly inhibited
NC(CSSCCS(=O)(=O)O)C(=O)NCC(=O)O (stereo not shown) [mesna-cysteinylglycine],IC50,T790M EGFR kinase; 10 μM ATP,510 ± 10 µM
same,potentiation of Erlotinib inhibition of T790M EGFR kinase activity,T790M EGFR kinase,effectively potentiated
same,IC50,T790M EGFR kinase; 100 μM ATP,410 ± 50 µM
same,potentiation of Erlotinib inhibition of WT EGFR kinase activity,WT EGFR kinase,effectively potentiated
same,IC50,WT EGFR kinase; [7],445 ± 80 µM
same,IC50,WT EGFR kinase; [8],370 ± 121 µM
same,IC50,WT EGFR kinase; [9],320 µM
TGF-α: growth factor ligand of ErbB receptors,ErbB-4,ErbB-4,−
same,ErbB-2,ErbB-2,−
same,ErbB-3,ErbB-3,−
"N[C@@H](CCC(=O)N[C@@H](CS)C(=O)NCC(=O)O)C(=O)O [glutathione, γ-glutamyl-cysteinyl-glycine, reference compound]",Glutathione adduct on Trx,Recombinant human Trx,glutathionylated at cysteine-73 (Cys73)
amphiregulin: growth factor ligand of ErbB receptors,ErbB-4,ErbB-4,−
same,ErbB-2,ErbB-2,−
same,ErbB-3,ErbB-3,−
same,ErbB-1,ErbB-1,+
O=P1(N(CCCl)CCCl)NCCCO1 (stereo not shown) [cyclophosphamide],Inhibition of GR,[1],not GR
same,Inhibition of TrxR,[2],irreversibly inhibited
NC(CSSCCS(=O)(=O)O)C(=O)NC(CCC(=O)O)C(=O)O (stereo not shown) [mesna-cysteinylglutamate],IC50,T790M EGFR kinase; 10 μM ATP,1090 ± 190 µM
same,potentiation of Erlotinib inhibition of T790M EGFR kinase activity,T790M EGFR kinase,effectively potentiated
same,IC50,T790M EGFR kinase; 100 μM ATP,1050 ± 80 µM
same,potentiation of Erlotinib inhibition of WT EGFR kinase activity,WT EGFR kinase,effectively potentiated
same,IC50,WT EGFR kinase; [4],714 ± 120 µM
same,IC50,WT EGFR kinase; [5],815 ± 20 µM
same,IC50,WT EGFR kinase; [6],690 µM
CC1=C(/C=C/C(C)=C/C=C/C(C)=C\C(=O)O)C(C)(C)CCC1 [13-cis-retinoic acid],Inhibition of TrxR,[2],irreversible inhibition
O=C1[O][Pt]2([NH][C@@H]3CCCC[C@H]3[NH]2)[O]C1=O [oxaliplatin],Inhibition of GR,[1],not GR
same,Inhibition of TrxR,[2],irreversibly inhibited
N.N.[Cl][Pt+2][Cl] [transplatin],Inhibition of GR,[1],not GR
same,Inhibition of TrxR,[2],irreversibly inhibited
betacellulin: growth factor ligand of ErbB receptors,ErbB-4,ErbB-4,+
same,ErbB-2,ErbB-2,−
same,ErbB-3,ErbB-3,−
same,ErbB-1,ErbB-1,+
COc1cccc2c1C(=O)c1c(O)c3c(c(O)c1C2=O)C[C@@](O)(C(C)=O)C[C@@H]3O[C@H]1C[C@H](N)[C@H](O)[C@H](C)O1 [daunorubicin],Inhibition of TrxR,[2],not inhibitors
COc1cccc2c1C(=O)c1c(O)c3c(c(O)c1C2=O)C[C@@](O)(C(=O)CO)C[C@@H]3O[C@H]1C[C@H](N)[C@H](O)[C@H](C)O1 [doxorubicin],Inhibition of TrxR,[2],not inhibitors
O=C(O)CCCc1ccc(N(CCCl)CCCl)cc1 [chlorambucil],Inhibition of GR,[1],not GR
same,Inhibition of TrxR,[2],irreversibly inhibited
EGF: growth factor ligand of ErbB receptors,ErbB-4,ErbB-4,−
same,ErbB-2,ErbB-2,−
same,ErbB-3,ErbB-3,−
"epigen: growth factor ligand of ErbB receptors (protein, UniProt Q6UW88 23-154, looked up) Epigen: AAVTVTPPITAQQGNWTVNKTEADNIEGPIALKFSHLCLEDHNSYCINGACAFHHELEKAICRCFTGYTGERCEHLTLTSYAVDSYEKYIAIGIGVGLLLSGFLVIFYCYIRKRCLKLKSPYNVCSGERRPL",ErbB-4,ErbB-4,−
same,ErbB-2,ErbB-2,−
same,ErbB-3,ErbB-3,−
same,ErbB-1,ErbB-1,+
